PMC8652888, “Angiogenesis, Anti-Tumor, and Anti-Metastatic Activity of Novel α-Substituted Hetero-Aromatic Chalcone Hybrids as Inhibitors of Microtubule Polymerization” (Frontiers in Chemistry, 2021)
Several values for one entry are separate records, joined by “and”; a condition that tells them apart may be missing. Identical values can stand only once. Like-named read-outs stand apart in the source and are kept apart here.

Columns and labels:
U937 = experiment: Antiproliferative activity, CCK-8 assay; type: cell-based; settings: Homo sapiens, U-937
Experimental: (§1) The synthesized compounds were first evaluated for their cytotoxic effect on MCF-7 (human breast adenocarcinoma), U937 (histiocytic lymphoma cancer), HepG2 (human liver cancer) cells, and MGC-803 (human gastric cancer) using the SRB and CCK-8 assay. As reference compounds CA-4 and colchicine were included.
(§2) The primary tumor cells were purchased from a professional biomedical company. First, the primary tumor cells were incubated in a cell culture incubator at 37°C and 5% CO2. After the cell fusion reached 85%–95%, subculture was performed, and the tumor cells obtained at this time were used for subsequent related experiments. The CCK-8 method was used to inhibit the proliferation of U937 tumor cells, and the SRB method was used to inhibit the proliferation of MCF7 and HepG2 tumor cells.
The cells in the logarithmic growth phase were seeded in a 96-well plate at 8,000/well, and the drug-containing medium and cell suspension were added to the well. Three wells were added with the blank medium as the blank group. The 96-well plate was incubated for 72 h in a 37°C, 5% CO2 incubator. The 10 μl of CCK-8 dye solution was added to each well, and the incubation continued for 3–4 h.

normal liver LO2 cells = experiment: Growth inhibition of normal cells; type: cell-based, human
HepG2 = experiment: Antiproliferative activity, SRB assay; type: cell-based, human; settings: Homo sapiens, HepG2
Experimental: as §1, §2
Cells were distributed into 96-well plates with a density of 3 × 10^3–4 × 10^3 cells per well and incubated for 24 h in a 5% CO2 incubator at 37°C, followed by treatment with study compounds at different concentrations at 37°C for 72 h. One hundred microliters of 10% (w/v) trichloroacetic acid was added to each well, fixed at 4°C for 30 min, and dried at 65°C. Then 100 μl of 0.4% SRB was added to each well and stained on a shaker for 20 min at room temperature. The excess dye solution was washed with newly prepared 1% glacial acetic acid and dried at 65°C. One hundred fifty microliters of 10 mM unbuffered Trisbase was added to each well of the plate and shaken for 5 min to dissolve the dye. The microplate reader measured the optical density (OD) at a wavelength of 560 nm.

[1] = tested on: taxol-resistant MCF7 cells (MCF7/Tax); experiment: Growth inhibition of taxol-resistant cells; type: cell-based, human
MCF-7 = experiment: Antiproliferative activity, SRB assay; type: cell-based, human;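 note: proliferation of MCF7 cells quantified by sulforhodamine B staining, with optical density read at 560 nm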
MGC-803 = experiment: Antiproliferative activity (SRB and CCK-8 assay); type: cell-based; settings: Homo sapiens
Text: as §1

[2] = 72 h, triplicate, mean ± SD, read-out: IC50 ± SD, U937
[3] = supplement raw data, read-out: IC50/U937
[4] = Homo sapiens, L02, three single determinations, read-out: L02 (raw data of table 3, IC50)
[5] = Homo sapiens, L02, triplicate, read-out: IC50 ± SD, LO2
[6] = 72 h, triplicate, mean ± SD, read-out: IC50 ± SD, HepG2
[7] = Homo sapiens, MCF7, three single determinations, read-out: MCF-7/Taxol (raw data of table 3, IC50)
[8] = Homo sapiens, MCF7, triplicate, read-out: IC50 ± SD, MCF7/Tax
[9] = Homo sapiens, MCF7, 72 h, 72 h, triplicate, mean ± SD, read-out: IC50 ± SD, MCF-7
[10] = Homo sapiens, MCF7, Table 3, triplicate, read-out: IC50 ± SD, MCF7
[11] = Homo sapiens, MCF7, supplement raw data, read-out: IC50/MCF
[12] = Homo sapiens, MCF7, three single determinations, read-out: MCF-7 (raw data of table 3, IC50)
[13] = supplement raw data, read-out: IC50/MGC
[14] = triplicate, mean ± SD, read-out: IC50 ± SD, MGC-803
[15] = supplement raw data of table 2, read-out: IC50(U937)

IC50 (U937; [2]) [nM] | IC50 (HepG2; [6]) [nM] | IC50 (MCF-7; [9]) [nM] | IC50 (MCF-7; [11]) [nM] | IC50 (MGC-803; [13]) [nM] | IC50 (MGC-803; [14]) [nM] | melting point [°C] | SMILES | also measured
52300 ± 3660 | > 20000 | > 20000 | – | – | – | 199.7 to 201.1 | COc1cc(C(=O)/C(C#N)=C/c2ccc3sc4ccccc4c3c2)cc(OC)c1OC [Compound 8q, (E)-3-[dibenzo (b,d)thiophen-2-yl]-2-(3,4,5-trimethoxybenzoyl)acrylonitrile] | IC50 (U937; [15]): 52300 nM
24900 ± 2020 | > 20000 | > 20000 | – | – | – | 201.8 to 203.1 | COc1cc(C(=O)/C(C#N)=C/c2nc3ccccc3n2C)cc(OC)c1OC [Compound 8r, (E)-3-[1-methyl-1H-benzo (d)imidazol-2-yl]-2-(3,4,5-trimethoxybenzoyl)acrylonitrile] | IC50 (U937; [15]): 24900 nM
> 20000 | > 20000 | > 20000 | – | – | – | 176.3 to 177.8 | COc1cc(C(=O)/C(C#N)=C/c2cccc3c2OCO3)cc(OC)c1OC [Compound 8s, (E)-3-[benzo(d)(1,3)dioxol-4-yl]-2-(3,4,5-trimethoxybenzoyl)acrylonitrile] | –
> 20000 | > 20000 | > 20000 | – | – | – | 207.1 to 209 | COc1cc(C(=O)/C(C#N)=C/c2cc3c(cc2Br)OCO3)cc(OC)c1OC [Compound 8t, (E)-3-[6-bromobenzo(d)(1,3)dioxol-5-yl]-2-(3,4,5-trimethoxybenzoyl)acrylonitrile] | –

More lines, now with the values behind:

SMILES | IC50 (U937; [2]) [nM] | IC50 (HepG2; [6]) [nM] | IC50 (MCF-7; [9]) [nM] | IC50 (MCF-7; [11]) [nM] | IC50 (MGC-803; [13]) [nM] | IC50 (MGC-803; [14]) [nM] | melting point [°C] | also measured
COc1ccc(/C=C\c2cc(OC)c(OC)c(OC)c2)cc1O [CA-4, reference compound] | 0.3 ± 0.1 | 7.1 ± 0.9 | 11.4 ± 0.2 | 11.4 ± 0.2 | – | – | – | IC50 (U937; [3]): 0.326 ± 0.1 nM; IC50 (normal liver LO2 cells; [4]): 14.1 nM; IC50 (normal liver LO2 cells; [5]): 15.2 ± 0.5 nM; IC50 (normal liver LO2 cells; three single determinations, read-out: L02 (raw data of table 3, IC50)): 16.2 nM and 15.3 nM; IC50 (HepG2; supplement raw data, read-out: IC50/Hepg2): 7.09 ± 0.9 nM; IC50 [1, 7]: 20.2 nM; IC50 [1, 8]: 21.2 ± 0.6 nM; IC50 ([1]; three single determinations, read-out: MCF-7/Taxol (raw data of table 3, IC50)): 22.1 nM and 21.3 nM; IC50 (MCF-7; [10]): 11.4 ± 0.2 nM; IC50 (MCF-7; [12]): 11.8 nM
COc1cc(C(=O)/C=C/c2c(C)[nH]c3ccccc23)cc(OC)c1OC [Compound 6b, (E)-3-(2-methyl-1H-indol-3-yl)-1-(3,4,5-trimethoxyphenyl)prop-2-en-1-one] | > 20000 | 14110 ± 117 | 281 ± 22 | 281 | 190 | 190 ± 2 | 236.7 to 238.2 | –
COc1cc(C(=O)/C=C/c2c(-c3ccccc3)[nH]c3ccccc23)cc(OC)c1OC [Compound 6c, (E)-3-(2-phenyl-1H-indol-3-yl)-1-(3,4,5-trimethoxyphenyl)prop-2-en-1-one] | 601 ± 267 | 1080 ± 92 | 313 ± 17 | 313 | – | 104 ± 1 | 60.2 to 61.7 | IC50 (U937; [3]): 601 nM
COc1cc(C(=O)/C=C/c2c[nH]c3cc(Br)ccc23)cc(OC)c1OC [Compound 6g, (E)-3-(6-bromo-1H-indol-3-yl)-1-(3,4,5-trimethoxyphenyl)prop-2-en-1-one] | > 20000 | 18100 ± 295 | 380 ± 20 | 380 | 70.6 | 71 ± 2 | 216.4 to 217.6 | –
COc1cc(C(=O)/C=C/c2cc3ccccc3o2)cc(OC)c1OC [Compound 6h, (E)-3-(benzofuran-2-yl)-1-(3,4,5-trimethoxyphenyl)prop-2-en-1-one] | > 20000 | > 20000 | 14600 ± 368 | – | – | 8780 ± 309 | 79.5 to 80.3 | –
COc1cc(C(=O)/C=C/c2coc3ccccc23)cc(OC)c1OC [Compound 6j, (E)-3-(benzofuran-3-yl)-1-(3,4,5-trimethoxyphenyl)prop-2-en-1-one] | 786 ± 346 | 4820 ± 102 | 988 ± 6 | 988 | 395 | 395 ± 15 | 117.5 to 120.8 | IC50 (U937; [3]): 786 nM
COc1cc(C(=O)/C=C/c2ccc3oc4ccccc4c3c2)cc(OC)c1OC [Compound 6l, (E)-3-[dibenzo (b,d)furan-2-yl]1-(3,4,5-trimethoxyphenyl)prop-2-en-1-one] | 2080 ± 252 | 3270 ± 65 | 810 ± 68 | 810 | 326 | 326 ± 16 | 56.5 to 57.6 | –
COc1cc(C(=O)/C=C/c2ccc3occc3c2)cc(OC)c1OC [Compound 6m, (E)-3-(benzofuran-5-yl)-1-(3,4,5-trimethoxyphenyl)prop-2-en-1-one] | 6170 ± 1640 | > 20000 | 6460 ± 103 | – | – | 3180 ± 62 | 110.5 to 115.3 | –
COc1cc(C(=O)/C=C/c2ccc3c(c2)CCO3)cc(OC)c1OC [Compound 6n, (E)-3-(2,3-dihydrobenzofuran-5-yl)-1-(3,4,5-trimethoxyphenyl)prop-2-en-1-one] | > 20000 | > 20000 | 3130 ± 415 | – | 851 | 851 ± 63 | 107.5 to 110.3 | –
COc1cc(C(=O)/C=C/c2cc3ccccc3s2)cc(OC)c1OC [Compound 6o, (E)-3-(benzo[b]thiophen-2-yl)-1-(3,4,5-trimethoxyphenyl)prop-2-en-1-one] | > 20000 | 8380 ± 585 | 2070 ± 43 | – | – | 1380 ± 86 | 115.5 to 116.9 | –
COc1cc(C(=O)/C=C/c2csc3ccccc23)cc(OC)c1OC [Compound 6p, (E)-3-(benzo[b]thiophen-3-yl)-1-(3,4,5-trimethoxyphenyl)prop-2-en-1-one] | > 20000 | 1380 ± 136 | 283 ± 11 | 283 | 75.7 | 76 ± 1 | 95.5 to 96.4 | –
COc1cc(C(=O)/C=C/c2ccc3sc4ccccc4c3c2)cc(OC)c1OC [Compound 6q, (E)-3[dibenzo (b,d)thiophen-2-yl]-1-(3,4,5-trimethoxyphenyl)prop-2-en-1-one] | 6380 ± 148 | 10600 ± 457 | 5090 ± 569 | – | – | 3220 ± 284 | 118.7 to 119.2 | –
COc1cc(C(=O)/C=C/c2nc3ccccc3n2C)cc(OC)c1OC [Compound 6r, (E)-3-[1-methyl-1H-benzo (d)imidazol-2-yl]-1-(3,4,5-trimethoxyphenyl)prop-2-en-1-one] | 1280 ± 71 | 4670 ± 295 | 5190 ± 465 | – | – | 2030 ± 225 | 123.5 to 125.2 | –
COc1cc(C(=O)/C=C/c2cccc3c2OCO3)cc(OC)c1OC [Compound 6s, (E)-3-(benzo[d][1,3]dioxol-4-yl)-1-(3,4,5-trimethoxyphenyl)prop-2-en-1-one] | > 20000 | 3320 ± 229 | 1230 ± 133 | – | 393 | 393 ± 17 | 138.4 to 140.3 | –
CC(=O)O[C@H]1C(=O)[C@@]2(C)[C@H]([C@H](OC(=O)c3ccccc3)[C@]3(O)C[C@H](OC(=O)[C@H](O)[C@@H](NC(=O)c4ccccc4)c4ccccc4)C(C)=C1C3(C)C)[C@]1(OC(C)=O)CO[C@@H]1C[C@@H]2O [Taxol, paclitaxel] | – | – | – | – | – | – | – | Selectivity ratio (normal liver LO2 cells; (IC50 human normal cells LO2)/(IC50 MCF7)): 1.3; IC50 (normal liver LO2 cells; [4]): 32.1 nM; IC50 (normal liver LO2 cells; [5]): 32.4 ± 1.9 nM; IC50 (normal liver LO2 cells; three single determinations, listed as TaxolL, read-out: L02 (raw data of table 3, IC50)): 34.5 nM and 30.6 nM; Resistant fold ([1]; (IC50 MCF7/Tax)/(IC50 MCF7)): 13.7; IC50 [1, 7]: 334 nM; IC50 [1, 8]: 336 ± 18 nM; IC50 ([1]; three single determinations, listed as TaxolL, read-out: MCF-7/Taxol (raw data of table 3, IC50)): 315 nM and 359 nM; IC50 (MCF-7; [10]): 24.6 ± 3.2 nM; IC50 (MCF-7; [12]): 20.6 nM; IC50 (MCF-7; three single determinations, listed as TaxolL, read-out: MCF-7 (raw data of table 3, IC50)): 28.3 nM and 24.9 nM
